Measured values taken from patent US4069035A, “1-(2-Carboxyaryl)-3-aryl-1,2,4-triazoles and use as herbicides” (E. I. Du Pont de Nemours and Company, priority 1976, dated 1978).

What was measured:
cassia [1] = assay: preemergence plant growth test; format: in vivo; settings: 2k/ha
Excerpt: (§1) The imidazole and triazole compounds of the invention are useful as plant growth modifiers when applied to plants. The compounds are applied to the immediate area where the plant is developing and growing, including preemergence and postemergence application.

wheat [2] = assay: preemergence plant growth test; format: in vivo; settings: 2k/ha
Excerpt: as §1

rice [3] = assay: preemergence plant growth test; format: in vivo; settings: 2k/ha
Excerpt: as §1

corn [4] = assay: preemergence plant growth test; format: in vivo; settings: 2k/ha
Excerpt: as §1

wild oats [5] = assay: preemergence plant growth test; format: in vivo; settings: 2k/ha
Excerpt: as §1

nutsedge [6] = assay: preemergence plant growth test; format: in vivo; settings: 2k/ha
Excerpt: as §1

sorghum [7] = assay: preemergence plant growth test; format: in vivo; settings: 2k/ha
Excerpt: as §1

[8] = pKa by titration against aqueous NaOH (half neutralization point), buffer range; format: physicochemical; settings: for pKa: dimethylsulfoxide/water, 0.09995N NaOH, half neutralization point; for Buffer Range: range 1 acid:10 salt to 10 acid:1 salt
Protocol: The selected acids listed in Table IX (65-84 mg samples, weighed accurately) were respectively dissolved in a mixture of dimethylsulfoxide (25 ml) and water (10-25 ml) and titrated against 0.09995N aqueous sodium hydroxide using an automatic titrimeter (Metrohm Potentiograph Model E 336). According to the general theory of buffer solutions (A. I. Vogel, "A Textbook of Quantitative Inorganic Analysis, Theory and Practice," Longmans, Green, London (1948)), the following relationship exists in a dilute solution (0.05-0.2M) of a weak acid to which small additions of acid or base are made
pH = pKa + log [Salt]/[Acid]
The pH of the solution is mainly determined by the pKa of the acid, and in general the buffering capacity (ability to withstand pH change upon addition of acid or base) is maintained within the range 1 acid:10 salt to 10 acid:1 salt, a hundred-fold variation of concentration, or a change of two pH units. The buffer ranges of each of the acids is shown in the third column of Table IX. The acids are useful as buffers in weakly acidic solutions.

cassia [9] = assay: postemergence plant growth test; format: in vivo; settings: 2k/ha
Excerpt: as §1

morning glory [10] = assay: postemergence plant growth test; format: in vivo; settings: 2k/ha
Excerpt: as §1

wheat [11] = assay: postemergence plant growth test; format: in vivo; settings: 2k/ha
Excerpt: as §1

soybeans [12] = assay: postemergence plant growth test; format: in vivo; settings: 2k/ha
Excerpt: as §1

rice [13] = assay: postemergence plant growth test; format: in vivo; settings: 2k/ha
Excerpt: as §1

cocklebur [14] = assay: postemergence plant growth test; format: in vivo; settings: 2k/ha
Excerpt: as §1

corn [15] = assay: postemergence plant growth test; format: in vivo; settings: 2k/ha
Excerpt: as §1

wild oats [16] = assay: postemergence plant growth test; format: in vivo; settings: 2k/ha
Excerpt: as §1

nutsedge [17] = assay: postemergence plant growth test; format: in vivo; settings: 2k/ha
Excerpt: as §1

sorghum [18] = assay: postemergence plant growth test; format: in vivo; settings: 2k/ha
Excerpt: as §1

bush beans = assay: postemergence plant growth test; format: in vivo; settings: 2k/ha
Excerpt: as §1

morning glory [19] = assay: preemergence plant growth test; format: in vivo; settings: 2k/ha
Excerpt: as §1

barnyard grass [20] = assay: preemergence plant growth test; format: in vivo; settings: 2k/ha
Excerpt: as §1

crabgrass = assay: preemergence plant growth test; format: in vivo; settings: 2k/ha
Excerpt: as §1

soybeans [21] = assay: preemergence plant growth test; format: in vivo; settings: 2k/ha; for epinastic response: soybeans
Excerpt: as §1

cocklebur [22] = assay: preemergence plant growth test; format: in vivo; settings: 2k/ha
Excerpt: as §1

barnyard grass [23] = assay: postemergence plant growth test; format: in vivo; settings: 2k/ha
Excerpt: as §1

cotton = assay: postemergence plant growth test; format: in vivo; settings: 2k/ha
Excerpt: as §1

Row | Compound | epinastic response (cassia [1]) | epinastic response (wheat [2]) | epinastic response (rice [3]) | epinastic response (corn [4]) | epinastic response (wild oats [5]) | epinastic response (nutsedge [6]) | epinastic response (sorghum [7]) | pKa [8] | Buffer Range [8] | epinastic response (cassia [9]) | epinastic response (morning glory [10]) | epinastic response (soybeans [12]) | epinastic response (rice [13]) | epinastic response (cocklebur [14]) | epinastic response (corn [15]) | epinastic response (sorghum [18]) | epinastic response (bush beans) | epinastic response (soybeans [21]) | epinastic response (cotton) | axillary stimulation (soybeans [12]) | also measured
1 | O=C(O)c1ccccc1-n1cnc(-c2ccc(Cl)c(Cl)c2)n1 [Example 7, 1-(2-carboxyphenyl)-3-(3,4-dichlorophenyl)-,2,4-triazole] | epinastic responses | epinastic responses | epinastic responses | epinastic responses | epinastic responses | epinastic responses | epinastic responses | 6.19 | 5.2 - 7.2 pH Units |  |  |  |  |  |  |  |  |  |  |  | 
2 | O=C(O)c1ccccc1-n1cnc(-c2ccccc2)c1 [Example 1, 1-(2-carboxyphenyl)-4-phenylimidazole] | very strong hormonal effect (epinastic response) | very strong hormonal effect (epinastic response) | very strong hormonal effect (epinastic response) | very strong hormonal effect (epinastic response) |  |  |  | 4.91 | 3.9 - 5.9 pH Units | epinastic response | epinastic response | epinastic response | epinastic response | epinastic response | epinastic response | epinastic response | epinastic response | very strong hormonal effect (epinastic response) |  |  | epinastic response (wheat [11]): epinastic response; epinastic response (wild oats [16]): epinastic response; growth (nutsedge [17]): retarded; epinastic response (morning glory [19]): very strong hormonal effect (epinastic response); epinastic response (barnyard grass [20]): very strong hormonal effect (epinastic response); emergence (crabgrass): inhibited; emergence (soybeans [21]; soybean): inhibited; epinastic response (cocklebur [22]): very strong hormonal effect (epinastic response); emergence (wild oats [5]): inhibited; emergence (nutsedge [6]): inhibited
3 | COc1ccc(-c2ncn(-c3ccccc3C(=O)O)n2)cc1 [Example 8, 1-(2-carboxyphenyl)-3-(4-methoxyphenyl)-1,2,4-triazole] | epinastic responses | epinastic responses | epinastic responses | epinastic responses | epinastic responses | epinastic responses | epinastic responses | 4.73 | 3.7 - 5.7 pH Units |  |  |  |  |  |  |  |  |  |  |  | 
4 | COc1ccc(-c2cn(-c3ccccc3C(=O)O)cn2)cc1 [Example 3, 1-(2-carboxyphenyl)-4-(4-methoxyphenyl)imidazole] |  |  |  |  |  |  |  | 5.08 | 4.1 - 6.1 pH Units | epinastic response |  | epinastic response | epinastic response | epinastic response | epinastic response | epinastic response | epinastic response |  | epinastic response | axillary stimulation | axillary stimulation (cassia [9]): axillary stimulation; axillary stimulation (barnyard grass [23]): axillary stimulation
5 | Cc1ccc(-c2cn(-c3ccccc3C(=O)O)cn2)cc1 [Example 4, 1-(2-carboxyphenyl)-4-(4-methylphenyl)imidazole] |  | moderate to strong response | very strong epinastic responses | very strong epinastic responses | moderate to strong response |  | moderate to strong response | 5.59 | 4.6 - 6.6 pH Units |  | epinastic response |  |  |  | epinastic response | epinastic response | epinastic response | very strong epinastic responses | epinastic response | strong axillary stimulation | epinastic response (crabgrass): very strong epinastic responses
6 | O=C(O)c1ccccc1-n1cnc(-c2ccc(Cl)cc2)n1 [Example 6, 1-(2-carboxyphenyl)-3-(4-chlorophenyl)-1,2,4-triazole] | epinastic responses | epinastic responses | epinastic responses | epinastic responses | epinastic responses | epinastic responses | epinastic responses | 5.48 | 4.5 - 6.5 pH Units |  |  |  |  |  |  |  |  |  |  |  | 
7 | Cc1ccc(-c2ncn(-c3ccccc3C(=O)O)n2)cc1 [Example 9, 1-(2-carboxyphenyl)-3-(4-methylphenyl)-1,2,4-triazole] | epinastic response |  | epinastic response |  |  | epinastic response | epinastic response | 4.81 | 3.8 - 5.8 pH Units | epinastic response | epinastic response |  | epinastic response | epinastic response |  | epinastic response |  |  |  |  | epinastic response (nutsedge [17]): epinastic response; growth (bush beans): retarded; epinastic response (morning glory [19]): epinastic response; epinastic response (cocklebur [22]): epinastic response
8 | O=C(O)c1ccccc1-n1cnc(-c2ccccc2)n1 [Example 5, 1-(2-carboxyphenyl)-3-phenyl-1,2,4-triazole] |  |  |  |  |  |  |  | 5.91 | 4.9 - 6.9 pH Units |  |  | epinastic response | epinastic response |  |  | epinastic response |  |  |  |  | growth (barnyard grass [23]): retarded; growth (wheat [11]): retarded; growth (wild oats [16]): retarded; epinastic response (nutsedge [17]): epinastic response
9 | O=C(O)c1ccccc1-n1cnc(-c2ccc(Cl)cc2)c1 [Example 2, 1-(2-carboxyphenyl)-4-(4-chlorophenyl)imidazole] |  | very strong response | very strong epinastic responses | very strong epinastic responses | very strong response |  | very strong response |  |  |  | epinastic response |  |  |  | epinastic response | epinastic response | epinastic response | very strong epinastic responses | epinastic response | strong axillary stimulation | epinastic response (crabgrass): very strong epinastic responses
